Results reported in PMC3830930 (Clinical pharmacology and therapeutics, 2011).
Where two headings read alike, the source gives them in different places. Marks after values point to notes of the source that are not given here.

Assays:
[1] = system: CYP3A4/5; experiment: clinical; conditions: human, in vivo
[2] = system: CYP3A4/5; conditions: for AUC1’-OH/AUC4-OH ratio: range over the three CYP3A5 genotype groups
[3] = biological target: recombinant CYP3A4 (rCYP3A4) (Homo sapiens, UniProt P08684)
recombinant CYP3A4 (rCYP3A4), sequence (P08684 2-503 limits assumed): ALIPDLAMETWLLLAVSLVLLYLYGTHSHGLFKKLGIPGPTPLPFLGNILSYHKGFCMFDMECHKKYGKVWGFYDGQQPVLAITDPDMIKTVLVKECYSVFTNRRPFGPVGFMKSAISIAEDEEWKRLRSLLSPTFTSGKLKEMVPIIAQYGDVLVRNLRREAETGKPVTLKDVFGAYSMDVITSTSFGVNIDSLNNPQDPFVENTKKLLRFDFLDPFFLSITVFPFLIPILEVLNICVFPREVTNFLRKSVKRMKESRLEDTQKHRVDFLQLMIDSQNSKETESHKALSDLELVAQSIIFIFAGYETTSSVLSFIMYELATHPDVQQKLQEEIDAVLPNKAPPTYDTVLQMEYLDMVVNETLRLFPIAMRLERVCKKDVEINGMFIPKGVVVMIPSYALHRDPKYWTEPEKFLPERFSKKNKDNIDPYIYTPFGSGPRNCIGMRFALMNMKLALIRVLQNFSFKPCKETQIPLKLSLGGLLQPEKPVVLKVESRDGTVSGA

[4] = system: plasma protein; conditions: cited from earlier work
[5] = system: UDP-glucuronosyltransferases (UGTs) in pooled HLMs; experiment: Glucuronidation of hydroxymidazolams in HLMs; assay type: in vitro ADME, human
[6] = cited from earlier work

Cc1ncc2n1-c1ccc(Cl)cc1C(c1ccccc1F)=NC2O (centres unmarked) [4-hydroxymidazolam]
AUC ([1]; iv, 1 mg, AUC4-OH): 0.0022 ± 0.0006 µM·h
percent of extrapolated AUC ([2]; human, in vivo): 19.0 ± 8.3%

Cc1ncc2n1-c1ccc(Cl)cc1C(c1ccccc1F)=NC2 [midazolam, reference compound]
AUC ([1]; AUCMDZ): 0.227 µM·h
AUC ([1]; iv, 1 mg, AUCMDZ): 0.16 ± 0.035 µM·h
percent of extrapolated AUC ([2]; human, in vivo): 13.0 ± 9.5%

OC(Cn1cncn1)(Cn1cncn1)c1ccc(F)cc1F [fluconazole]
IC50 for 1’-OH-MDZ lower than that for 4-OH-MDZ ([3]; human, pH 7.4): 50%
plasma protein binding [4]: 11–12%
effect on the glucuronidation of either hydroxymidazolam metabolite ([5]; pooled HLMs, substrate 1 µM, even at 300 µM fluconazole): no effect
elimination t1/2 [6]: ~ 32 hrs

OCc1ncc2n1-c1ccc(Cl)cc1C(c1ccccc1F)=NC2 [1’-hydroxymidazolam]
Ki of 1’-OH-MDZ formation (substrate inhibition) [3]: 1480 ± 615 ^a µM
AUC1’-OH/AUC4-OH ratio ([2]; control state): 6.3–9.6
percent of extrapolated AUC ([2]; extrapolation to infinity, mean ± S.D.): 18.4 ± 10.6%
AUC1’-OH/AUC4-OH ratio ([2]; with fluconazole): 2.9–4.9

hecogenin
effect on glucuronide formation from 1’-OH-MDZ or 4-OH-MDZ [5]: decreased glucuronide formation significantly
